# Reference: patent publication US8492377B2, “MTKI quinazoline derivatives” (Janssen Pharmaceutica NV, priority 2006, dated 2013)
# Biological target: human Fyn (Homo sapiens, UniProt P06241)
# Assay: C2: Fyn kinase assay
# Type: biochemical
# Details: 5 ng human Fyn, 1.0 μM unlabeled ATP, poly(Glu,Tyr) 4:1, 25° C., 10 minutes; read-out: C2: Fyn kinase pIC50 (converted)
# Procedure: In this assay the Fyn kinase reaction is performed at 25° C. for 10 minutes in a 96-well microtiterplate. The 25 μl reaction volume contains 8 mM MOPS pH 7.0, 20 mM Mg-acetate, 0.2 mM Na2EDTA, 0.5 mM MnCl2, 1.0 μM unlabeled ATP, 0.2 μCi AT^33P, 20 ng poly(Glu,Tyr) 4:1 and 5 ng human Fyn.
# (§1) The reaction is stopped by adding 5 μl of a 3% phosphoric acid solution. 5 μl of the reaction mixture is then spotted onto a Filtermat A filter (Wallac) and washed 3 times for 5 min. in 75 mM phosphoric acid and 1 time for 5 min. in methanol prior to drying and scintillation counting.
# human Fyn, sequence (P06241 whole entry): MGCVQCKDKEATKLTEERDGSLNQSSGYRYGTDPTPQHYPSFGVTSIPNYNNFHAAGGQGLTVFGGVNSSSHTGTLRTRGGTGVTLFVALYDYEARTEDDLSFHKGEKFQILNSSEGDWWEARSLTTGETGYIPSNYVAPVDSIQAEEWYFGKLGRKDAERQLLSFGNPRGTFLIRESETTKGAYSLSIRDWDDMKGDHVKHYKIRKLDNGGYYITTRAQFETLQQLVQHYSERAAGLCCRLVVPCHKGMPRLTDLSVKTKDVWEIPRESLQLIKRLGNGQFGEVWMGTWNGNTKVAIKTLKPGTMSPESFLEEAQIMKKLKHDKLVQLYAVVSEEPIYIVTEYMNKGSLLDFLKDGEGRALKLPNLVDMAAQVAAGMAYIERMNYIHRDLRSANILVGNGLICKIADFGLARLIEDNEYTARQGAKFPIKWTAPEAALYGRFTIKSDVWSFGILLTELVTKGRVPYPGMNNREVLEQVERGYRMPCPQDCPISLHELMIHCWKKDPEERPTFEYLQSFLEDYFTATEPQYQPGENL
row,IC50 [nM],SMILES
1,> 1000,CN1CCN(C(=O)OC(C)(C)C)CCCOc2cc3c(ncnc3cc2OC(=O)OC(C)(C)C)Nc2c(ccc3c2OCO3)C1 [Compound A25]
2,21.9,COc1cc2ncnc3c2cc1OCCCN(C)CCN(C)Cc1ccc2c(c1N3)OCO2 [Compound B10]
3,5.75,CN1CCCCCOc2cc3c(ncnc3cc2OCCC2CCN(C(=O)CCS(C)(=O)=O)CC2)Nc2c(ccc3c2OCO3)C1 [Compound B65]
4,43.7,CN(CCO)CCCOc1cc2ncnc3c2cc1OCCCN(C(=O)OC(C)(C)C)CCN(C)Cc1ccc2c(c1N3)OCO2 [Compound A29]
5,< 1,CN1CCCCCOc2cc3c(ncnc3cc2OC[C@@H](O)CN2CCCCC2)Nc2c(ccc3c2OCO3)C1 [Compound B1]
6,245,COc1cc2ncnc3c2cc1OCCCNC(=O)[C@H](C)N(C)Cc1ccc2c(c1N3)OCO2 [Compound A38]
7,138,COCCNCCCOc1cc2ncnc3c2cc1OCCCNC(=O)[C@H](C)N(C)Cc1ccc2c(c1N3)OCO2 [Compound B38]
8,26.3,C[C@H]1C(=O)NCCCOc2cc3c(ncnc3cc2OCCCN2CCN(C)CC2)Nc2c(ccc3c2OCO3)CN1C [Compound B57]
9,89.1,CN1CCCCCOc2cc3c(ncnc3cc2O)Nc2c(cc(Br)c3c2OCO3)C1 [Compound B48]
10,38,C[C@H]1C(=O)NCCCOc2cc3c(ncnc3cc2OCCCN2CCOCC2)Nc2c(ccc3c2OCO3)CN1C [Compound B6]
11,< 1000,CN(CCO)CCCOc1cc2ncnc3c2cc1OCCCCCN(C)Cc1cc(Br)c2c(c1N3)OCO2 [Compound B72]
12,< 1000,COCCOCCOc1cc2ncnc3c2cc1OCCCN(C(=O)OC(C)(C)C)CCN(C)Cc1ccc2c(c1N3)OCO2 [Compound A28]
13,40.7,COc1cc2ncnc3c2cc1OCCCCCNCc1cc(Oc2ccc(C)nc2)c2c(c1N3)OCO2 [Compound B17]
14,85.1,C[C@H]1C(=O)NCCCOc2cc3c(ncnc3cc2OCCCN2CCC(S(C)(=O)=O)CC2)Nc2c(ccc3c2OCO3)CN1C [Compound B56]
15,5.25,CN1CCCCCOc2cc3c(ncnc3cc2OC[C@H](O)CN2CCS(=O)(=O)CC2)Nc2c(ccc3c2OCO3)C1 [Compound B25]
16,11.7,CN1CCN(CCCOc2cc3ncnc4c3cc2OCCCNCCN(C)Cc2ccc3c(c2N4)OCO3)CC1 [Compound B3]
17,19.5,COc1cc2ncnc3c2cc1OCCCCCN(C)Cc1cc(Br)c2c(c1N3)OCO2 [Compound B43]
18,18.2,COc1cc2ncnc3c2cc1OCCCCCN(C)Cc1ccc2c(c1N3)OCO2 [Compound A11]
19,1.23,CN1CCCCCOc2cc3c(ncnc3cc2OCCCN2CCCCC2)Nc2c(ccc3c2OCO3)C1 [Compound B19]
20,6.92,COc1cc2ncnc3c2cc1OCCCN(S(=O)(=O)c1ccccc1[N+](=O)[O-])CCN(C)Cc1ccc2c(c1N3)OCO2 [Compound A20]
21,37.2,CC(=O)NCCN1CCN(CCCOc2cc3ncnc4c3cc2OCCCNC(=O)[C@H](C)N(C)Cc2ccc3c(c2N4)OCO3)CC1 [Compound B60]
22,> 1000,CN1CCC(COc2cc3ncnc4c3cc2OCCCCCN(C)Cc2ccc3c(c2N4)OCO3)CC1 [Compound B22]
23,209,Oc1cc2ncnc3c2cc1OCCCCCNCc1cc(Br)c2c(c1N3)OCO2 [Compound B44]
24,> 1000,COc1cc2ncnc3c2cc1OCCCN(C)C(=O)[C@H](C)N(C)Cc1ccc2c(c1N3)OCO2 [Compound B78]

row,IC50 [nM],SMILES
1,91.2,COCCOCCOc1cc2ncnc3c2cc1OCCCNC(=O)[C@H](C)N(C)Cc1ccc2c(c1N3)OCO2 [Compound B7]
2,204,COc1cc2ncnc3c2cc1OCCCCCN(C(=O)OCc1ccccc1)Cc1ccc2c(c1N3)OCO2 [Compound A8]
3,69.2,CN1CCN(C(=O)OC(C)(C)C)CCCOc2cc3c(ncnc3cc2OCCCN2CCC(S(C)(=O)=O)CC2)Nc2c(ccc3c2OCO3)C1 [Compound A54]
4,316,COc1cc2ncnc3c2cc1OCCCN(C)C(=O)[C@H](C)N(C)Cc1cc(Cl)c2c(c1N3)OCO2 [Compound B76]
5,38,CCOC(CCOc1cc2ncnc3c2cc1OCCCCCN(C)Cc1ccc2c(c1N3)OCO2)OCC [Compound B32]
6,> 1000,COc1cc2ncnc3c2cc1OCCCCCN(C(=O)OCc1ccccc1)Cc1cc(Oc2ccc(C)nc2)c2c(c1N3)OCO2 [Compound A68]
7,69.2,COc1cc2ncnc3c2cc1OCCCNC(=O)[C@H](C)N(C)Cc1cc(Cl)c2c(c1N3)OCO2 [Compound B74]
8,33.1,C[C@H]1C(=O)NCCCOc2cc3c(ncnc3cc2OCCCN2CCN(C)CC2)Nc2c(ccc3c2OCO3)CN1C [Compound B58]
9,< 1000,CN1CCCCCOc2cc3c(ncnc3cc2OCCCN2CCN(CCO)CC2)Nc2c(cc(Br)c3c2OCO3)C1 [Compound B66]
10,38,C[C@H]1C(=O)NCCCOc2cc3c(ncnc3cc2OCCCN2CCS(=O)(=O)CC2)Nc2c(ccc3c2OCO3)CN1C [Compound B36]
11,129,C[C@H]1C(=O)NCCCOc2cc3c(ncnc3cc2OCCCNCCO)Nc2c(ccc3c2OCO3)CN1C [Compound B39]
12,> 1000,COc1cc2ncnc3c2cc1OCCCCN(C(=O)OCc1ccccc1)CCc1ccc2c(c1N3)OCO2 [Compound B50]
13,< 1000,Brc1cc2c(c3c1OCO3)Nc1ncnc3cc(OCCCN4CCCC4)c(cc13)OCCCCCNC2 [Compound B27]
14,19.5,CN1CCNCCCOc2cc3c(ncnc3cc2OCCCN2CCC(S(C)(=O)=O)CC2)Nc2c(ccc3c2OCO3)C1 [Compound B14]
15,200,C[C@H]1C(=O)NCCCOc2cc3c(ncnc3cc2OC[C@@H](O)CN2CCC(O)CC2)Nc2c(ccc3c2OCO3)CN1C [Compound B62]
16,214,C[C@H]1C(=O)NCCCOc2cc3c(ncnc3cc2OCCCN(C)CCO)Nc2c(ccc3c2OCO3)CN1C [Compound B40]
17,42.7,C[C@H]1C(=O)NCCCOc2cc3c(ncnc3cc2OCCCN2CCN(C(=O)CCS(C)(=O)=O)CC2)Nc2c(ccc3c2OCO3)CN1C [Compound B59]
18,81.3,COCCOc1cc2ncnc3c2cc1OCCCNC(=O)[C@H](C)N(C)Cc1ccc2c(c1N3)OCO2 [Compound B41]
19,282,C[C@H]1C(=O)NCCCOc2cc3c(ncnc3cc2OC[C@@H]2CO2)Nc2c(ccc3c2OCO3)CN1C [Compound B42]
20,51.3,C[C@H]1C(=O)NCCCOc2cc3c(ncnc3cc2OCCCN2CCN(CCO)CC2)Nc2c(ccc3c2OCO3)CN1C [Compound B54]
21,13.2,COCCOc1cc2ncnc3c2cc1OCCCCCNCc1ccc2c(c1N3)OCO2 [Compound B33]
22,< 1000,CN1CCN(CCCOc2cc3ncnc4c3cc2OCCCCCNCc2cc(Br)c3c(c2N4)OCO3)CC1 [Compound B28]
23,64.6,C[C@H]1C(=O)NCCCOc2cc3c(ncnc3cc2OCCCN2CCOCC2)Nc2c(ccc3c2OCO3)CN1C [Compound A42]
24,110,COc1cc2ncnc3c2cc1OCCCCN(C)CCc1ccc2c(c1N3)OCO2 [Compound B53]

row,SMILES,IC50 [nM]
1,C[C@H]1C(=O)NCCCOc2cc3c(ncnc3cc2OCCCN2CCC(CCS(C)(=O)=O)CC2)Nc2c(ccc3c2OCO3)CN1C [Compound B55],115

# Biological target: human Src (Homo sapiens, UniProt P12931)
# Sequence (P12931 whole entry): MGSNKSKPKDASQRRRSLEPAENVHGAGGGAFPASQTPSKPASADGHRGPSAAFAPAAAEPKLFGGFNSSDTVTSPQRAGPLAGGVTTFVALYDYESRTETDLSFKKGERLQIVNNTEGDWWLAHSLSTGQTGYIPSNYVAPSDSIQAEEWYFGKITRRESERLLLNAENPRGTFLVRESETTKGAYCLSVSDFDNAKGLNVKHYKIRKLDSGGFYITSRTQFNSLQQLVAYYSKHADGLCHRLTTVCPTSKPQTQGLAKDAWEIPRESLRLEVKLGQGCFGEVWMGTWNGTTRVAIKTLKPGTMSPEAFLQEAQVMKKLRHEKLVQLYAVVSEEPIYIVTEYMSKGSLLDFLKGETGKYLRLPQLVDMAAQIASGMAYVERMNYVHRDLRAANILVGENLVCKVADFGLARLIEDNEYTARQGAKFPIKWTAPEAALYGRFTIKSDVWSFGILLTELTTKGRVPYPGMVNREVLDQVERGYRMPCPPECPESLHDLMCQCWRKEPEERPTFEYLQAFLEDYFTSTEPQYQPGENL
# Assay: C1: c-Src filter assay
# Type: biochemical
# Details: 5 ng human Src, 1.0 μM unlabeled ATP, poly(Glu,Tyr) 4:1, 25° C., 10 minutes; read-out: C1: c-SRC filter pIC50 (converted)
# Procedure: The in vitro inhibition of c-Src kinase was assessed using the glass-fiber filter technology as described by Davies, S. P. et al., Biochem J. (2000), 351; p. 95-105.
# In the glass-fiber filter technology the activity of the kinase is measured using an appropriate substrate that is incubated with the aforementioned kinase protein in the presence of (^33P) radiolabeled ATP. (^33P) Phosporylation of the substrate is subsequently measured as radioactivity bound on a glassfiber-filter.
# In an alternative filter based assay the final kinase activity was assessed using a phosphostorage screen instead of scintilation counting.
# In this assay the Src kinase reaction is performed at 25° C. for 10 minutes in a 96-well microtiterplate. The 25 μl reaction volume contains 8 mM MOPS pH 7.0, 20 mM Mg-acetate, 0.2 mM Na2EDTA, 0.5 mM MnCl2, 1.0 μM unlabeled ATP, 0.2 μCi AT^33P, 20 ng poly(Glu,Tyr) 4:1 and 5 ng human Src.
# as §1, with “quantification on the Typhoon (Amersham) using a phosphostorage screen.” for “scintillation counting.”
row,IC50 [nM],SMILES
1,1910,COc1cc2ncnc3c2cc1OCCCN(C)CCN(C)Cc1ccc2c(c1N3)OCO2 [Compound B10]
2,1820,CN1CCCCCOc2cc3c(ncnc3cc2OCCC2CCN(C(=O)CCS(C)(=O)=O)CC2)Nc2c(ccc3c2OCO3)C1 [Compound B65]
3,2630,CN(CCO)CCCOc1cc2ncnc3c2cc1OCCCN(C(=O)OC(C)(C)C)CCN(C)Cc1ccc2c(c1N3)OCO2 [Compound A29]
4,537,CN1CCCCCOc2cc3c(ncnc3cc2OC[C@@H](O)CN2CCCCC2)Nc2c(ccc3c2OCO3)C1 [Compound B1]
5,3310,COc1cc2ncnc3c2cc1OCCCNC(=O)[C@H](C)N(C)Cc1ccc2c(c1N3)OCO2 [Compound A38]
6,> 10000,COCCOCCOc1cc2ncnc3c2cc1OCCCN(C(=O)OC(C)(C)C)CCN(C)Cc1ccc2c(c1N3)OCO2 [Compound A28]
7,> 10000,COc1cc2ncnc3c2cc1OCCCCCNCc1cc(Oc2ccc(C)nc2)c2c(c1N3)OCO2 [Compound B17]
8,1410,CN1CCCCCOc2cc3c(ncnc3cc2OC[C@H](O)CN2CCS(=O)(=O)CC2)Nc2c(ccc3c2OCO3)C1 [Compound B25]
9,447,CN1CCN(CCCOc2cc3ncnc4c3cc2OCCCNCCN(C)Cc2ccc3c(c2N4)OCO3)CC1 [Compound B3]
10,> 10000,COc1cc2ncnc3c2cc1OCCCCCN(C)Cc1cc(Br)c2c(c1N3)OCO2 [Compound B43]
11,617,CN1CCCCCOc2cc3c(ncnc3cc2OCCCN2CCCCC2)Nc2c(ccc3c2OCO3)C1 [Compound B19]
12,186,COc1cc2ncnc3c2cc1OCCCN(S(=O)(=O)c1ccccc1[N+](=O)[O-])CCN(C)Cc1ccc2c(c1N3)OCO2 [Compound A20]
13,1290,CN1CCC(COc2cc3ncnc4c3cc2OCCCCCN(C)Cc2ccc3c(c2N4)OCO3)CC1 [Compound B22]
